Reference: PubChem BioAssay (NCI)
Where “and” joins values, the source holds several entries; their conditions need not be identical. Equal entries are not always repeated.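 Each compound was tested at five concentrations against cells in 96-well plates for 48 hours. Here, GI50 denotes the concentration required for 50% inhibition of growth. The concentration for full growth arrest is given as TGI.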

Legend:
Experiment in all cases: NCI anticancer screen, dose series, 48 h
SN12C renal = system: SN12C renal
NCI/ADR-RES ovarian = system: NCI/ADR-RES ovarian
HT29 colon = system: HT29 colon
SK-MEL-5 melanoma = system: SK-MEL-5 melanoma
OVCAR-5 ovarian = system: OVCAR-5 ovarian
M14 melanoma = system: M14 melanoma
SF-268 CNS = system: SF-268 CNS
IGROV1 ovarian = system: IGROV1 ovarian
A549 NSCLC = system: A549 NSCLC
EKVX NSCLC = system: EKVX NSCLC

Structure (SMILES)	GI50 (SN12C renal)	TGI (SN12C renal)	GI50 (NCI/ADR-RES ovarian)	TGI (NCI/ADR-RES ovarian)	GI50 (HT29 colon)	TGI (HT29 colon)	GI50 (SK-MEL-5 melanoma)	TGI (SK-MEL-5 melanoma)	GI50 (OVCAR-5 ovarian)	TGI (OVCAR-5 ovarian)	GI50 (M14 melanoma)	TGI (M14 melanoma)	GI50 (SF-268 CNS)	TGI (SF-268 CNS)	GI50 (IGROV1 ovarian)	TGI (IGROV1 ovarian)	GI50 (A549 NSCLC)	TGI (A549 NSCLC)	GI50 (EKVX NSCLC)	TGI (EKVX NSCLC)
N#Cc1nc2cc(F)c(F)cc2nc1-c1ccc(Cl)cc1	6.83 µM	34.8 µM	10.3 µM	> 81.1 µM	7.8 µM	> 100 µM	14.4 µM	40.6 µM	> 100 µM	> 100 µM	7.93 µM	23.8 µM	8.07 µM	30.2 µM	0.673 µM	2.31 µM	39.3 µM	> 100 µM	10.4 µM	> 69.4 µM
Oc1c(N=Nc2ccccc2)c2ccccc2c2ccc3ccccc3c12	–	> 100 µM	–	> 100 µM	–	> 100 µM	–	> 100 µM	–	> 100 µM	–	> 100 µM	–	> 100 µM	–	> 100 µM	–	> 100 µM	–	> 100 µM
CCCCCN(CCCCC)CC(O)c1cc2c(c3ccccc13)CCCC2 (stereo not given)	6.12 µM and 13.8 µM	19.8 µM and 30 µM	6.44 µM and 12.3 µM	20.1 µM and 27.5 µM	1.35 µM and 2.22 µM	9.48 µM and 13.6 µM	2.08 µM and 3.98 µM	5.01 µM and 14.1 µM	11.1 µM and 13.5 µM	23.6 µM and 31.5 µM	4.76 µM and 10.4 µM	16.3 µM and 23.8 µM	11.3 µM and 16.5 µM	23.9 µM and 36.8 µM	3.5 µM and 6.44 µM	17.3 µM and 33.3 µM	9.87 µM and 12.3 µM	22.8 µM and 29.7 µM	4.92 µM	17.7 µM
COCCNC(=O)c1ccc(-c2nc3ccc4[nH]ncc4c3c3c2CCCC3)cc1	2.61 µM	91.7 µM	4.29 µM	> 100 µM	3.11 µM	> 100 µM	3.39 µM	26.3 µM	6.05 µM	> 100 µM	1.39 µM	> 100 µM	2.22 µM	39.7 µM	1.24 µM	10.9 µM	2.13 µM	> 100 µM	1.61 µM	43.2 µM
C[C@@H]1C[C@@]2(O[C@@H]2C)C(=O)O[C@@H]2CCN3CC=C(COC(=O)[C@]1(C)O)[C@H]23	–	> 100 µM	–	> 100 µM	–	> 100 µM	–	> 100 µM	–	> 100 µM	–	> 100 µM	–	> 100 µM	–	> 100 µM	–	> 100 µM	–	> 100 µM
C=CC(=O)Nc1cccc(C)c1Nc1ncc2cc(-c3c(Cl)c(OC)cc(OC)c3Cl)ccc2n1	5.87 µM	> 100 µM	4.07 µM	66.5 µM	6.31 µM	67.7 µM	2.61 µM	9.63 µM	17.9 µM	> 100 µM	7.44 µM	57.2 µM	3.69 µM	38.6 µM	8.18 µM	26 µM	7.27 µM	97.4 µM	6.85 µM	52.9 µM
